Laboratory results: patent EP4722236A1, “INSULIN DERIVATIVE AND USE THEREOF” (The United Bio-Technology (Hengqin) Co., Ltd., priority 2023, dated 2024)

How the values were obtained:
[1] = biological target: T1, human serum albumin (HSA) (Homo sapiens, UniProt P02768); settings: hsa on cm5 chip
Protocol: (§1) According to the instructions for the Amine Coupling Kit, Type 2 (Cytiva), immobilize human serum albumin onto the surface of the CM5 sensor chip of the S Series. […] Human serum albumin (HSA) was diluted to 20 µg/mL with acetic acid solution of pH 4.5. The EDC/NHS mixture solution, HSA protein solution, and 1M ethanolamine-hydrochloric acid solution were added to the detection plate according to the program settings. b) The detection plate was placed into the Biacore 8K sample compartment. The EDC/NHS mixture solution, HSA protein solution, and 1M ethanolamine-hydrochloric acid solution were sequentially injected into the channels on the surface of the CM5 chip by the Biacore 8K according to the program. Through this process, the chip was activated, the ligand was coupled, and the chip was deactivated. Each channel consists of two circulation pools, with circulation pool 1 serving as the reference channel undergoing only surface activation and deactivation without injection of HSA protein solution.
(§2) The detection plate was placed into the sample compartment of the Biacore 8K, with the running buffer serving as the 0-concentration reference sample. c) Run the detection program, with samples sequentially injected into each channel of the chip according to the program.
(§3) Finally, the data was analyzed using BiaCore Insight Evaluation Software, employing a 1:1 binding model for analysis.

normal SD rats = assay: Pharmacodynamic study in normal SD rats (blood glucose, single subcutaneous dose); type: in vivo; settings: for Blood Glucose Levels: Table 4.2, SD rats, 650 nmol/kg s.c. single dose, Mean ± SEM, n = 8
Protocol: Normal male SD rats aged 8-9 weeks, body weight 280-320 g, were selected. Animals were housed in animal housing facilities with strictly controlled environmental conditions, where the temperature is maintained between 20°Cand 24°C and humidity was kept between 30 and 70%. During the experiment, animals were housed individually with free access to food and water.
After one week of adaptive feeding, the experiment commenced. Rats were assigned to Solvent group 1, Solvent group 2, and the treatment group based on body weight and blood glucose levels before administration, with eight rats per group. The administered doses were all 650 nmol/kg.
The above drugs were dissolved in the solvent to a concentration of 216.7 nmol/mL. The dosing volume is 3 mL/kg. For a single subcutaneous administration, with the administration time set as 0 hours, blood glucose levels were measured at 0 h before dosing, and at 4 h, 8 h, 24 h, 28 h, 48 h, 72 h, 96 h, and 120 h after dosing (without dietary restrictions).

[2] = biological target: T1, human serum albumin (HSA); assay: In vitro binding to HSA via SPR (Biacore 8K)
Protocol: as §1, §2, §3

[3] = HSA on CM5 chip, 1:1 binding model

T1 sequence (P02768 25-609): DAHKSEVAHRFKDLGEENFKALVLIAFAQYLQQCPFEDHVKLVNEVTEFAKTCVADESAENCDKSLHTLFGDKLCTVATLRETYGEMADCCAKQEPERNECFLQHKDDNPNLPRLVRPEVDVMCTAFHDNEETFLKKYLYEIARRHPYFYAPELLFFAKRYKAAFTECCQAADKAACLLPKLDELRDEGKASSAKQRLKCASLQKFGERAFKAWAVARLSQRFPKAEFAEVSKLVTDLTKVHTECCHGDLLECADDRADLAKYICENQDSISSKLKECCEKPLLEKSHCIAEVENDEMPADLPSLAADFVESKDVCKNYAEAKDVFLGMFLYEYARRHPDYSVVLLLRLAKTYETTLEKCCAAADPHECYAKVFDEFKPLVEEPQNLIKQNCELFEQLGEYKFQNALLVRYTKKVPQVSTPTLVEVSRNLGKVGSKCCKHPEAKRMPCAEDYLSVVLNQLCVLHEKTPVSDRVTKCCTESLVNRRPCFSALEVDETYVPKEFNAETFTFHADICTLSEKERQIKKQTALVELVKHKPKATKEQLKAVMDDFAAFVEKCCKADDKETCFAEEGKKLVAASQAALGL

With “A14E, B16H, B25H, B29K (N^ε-[1-(19-Carboxyl-nonadecyloxy)-β-D-glucuronyl]-γGlu-[2-(2-{2-[2-(2-Aminoethoxy) ethoxy]acetylamino}ethoxy)ethoxy]acetyl), desB27, desB30 human insulin [Compound 4]” the Kd [1] was 275 µM, the “Blood Glucose Levels” value (normal SD rats; 0 h (before dosing)) was 7.3 ± 0.1 and the “Blood Glucose Levels” value (normal SD rats; 4 h) was 3.6±0.3. For the same substance, the “Blood Glucose Levels” value (normal SD rats; 24 h) was 4.2±0.4, the “Blood Glucose Levels” value (normal SD rats; 48 h) was 4.4±0.5 and the “Blood Glucose Levels” value (normal SD rats; 72 h) was 6.6±0.5. For the same substance, the “Blood Glucose Levels” value (normal SD rats; 96 h) was 7.8±0.1, the “Blood Glucose Levels” value (normal SD rats; 120 h) was 7.5 ± 0.1 and the hypoglycemic effect (normal SD rats; comparison in words with Icodec, SD rats, s.c.) was “superior to Icodec”. For the same substance, the ka [2, 3] was 612 M⁻¹ s⁻¹, the kd [2, 3] was 0.169 s⁻¹ and the “binding affinity to HSA” value ([2]; comparison in words with Icodec, SPR) was “superior binding affinity to HSA compared to Icodec”.
